From ChEMBL document CHEMBL4257494, “Exploring eukaryotic versus prokaryotic ribosomal RNA recognition with aminoglycoside derivatives” (Medchemcomm, 2018) come the findings set out here.

Molecules are shown by their SMILES. Calls of active or inactive are those of the source. No cut-off for these calls is given here.

Experiment [1] is described as follows: Binding affinity to decoding-site of rRNA in Escherichia coli S30 extract assessed as inhibition of protein translation after 60 mins by coupled transcription/translation assay.
Experiment [2] can be described thus: Binding affinity to decoding-site of rRNA in rabbit reticulocytes assessed as inhibition of protein translation after 60 mins by coupled transcription/translation assay. The class given is cell-based, Oryctolagus cuniculus.
A short description of experiment [3]: Ratio of IC50 for inhibition of decoding-site of rRNA-mediated protein translation in rabbit reticulocytes to IC50 for inhibition of decoding-site of rRNA-mediated protein translation in Escherichia coli S30 extract. The class given is cell-based.
Experiment [4] relates to Escherichia coli. As to the kind of experiment: Antibacterial activity against Escherichia coli R477/100 by double-microdilution method. In kind it is functional.
Experiment [5] has as its system Bacillus spizizenii. As to the kind of experiment: Antibacterial activity against Bacillus subtilis ATCC 6633 by double-microdilution method. The class given is functional.
For experiment [6], the system named is HEK293. As to the kind of experiment: Binding affinity to decoding-site of rRNA in HEK293 cells assessed as read through activity at premature termination codon-containing CFTR G452X nonsense mutant gene (unknown origin) expressed in HEK293 cells after 16 hrs by dual luciferase reporter gene assay. In kind it is cell-based. The following applies: Homo sapiens.

Experiment [7] has as its system HEK293. As to the kind of experiment: Binding affinity to decoding-site of rRNA in HEK293 cells assessed as read through activity at premature termination codon-containing PCDH15 R3X nonsense mutant gene (unknown origin) expressed in HEK293 cells after 16 hrs by dual luciferase reporter gene assay. To be noted: Homo sapiens. The class given is cell-based.

As to `C[C@H](N)[C@H]1O[C@H](O[C@@H]2[C@@H](O)[C@H](N)C[C@H](N)[C@H]2O[C@H]2O[C@H](CO)[C@@H](O)[C@H](O)[C@H]2N)[C@H](O)[C@@H]1O.O=S(=O)(O)O`, the IC50 amounted to 2410 µM in experiment [1] and 3180 µM in experiment [2]. Also, the Ratio IC50 in experiment [3] amounted to 1.3. The MIC in experiment [4] and in experiment [5] was more than 192 µg/mL throughout. Also, the outcome in experiment [6] and in experiment [7] was Active.

As to `NC(=O)[C@@H]1O[C@H](O[C@H]2[C@H](O)[C@@H](O)[C@H](N)C[C@@H]2N)[C@H](N)[C@@H](O)[C@@H]1O.O=S(=O)(O)O`, the results for the IC50 in experiment [1] and in experiment [2] were 1300 µM and 700 µM, respectively. The Ratio IC50 in experiment [3] came out at 0.5. Also, the MIC in experiment [4] and in experiment [5] was more than 192 µg/mL in each case.

`NC[C@H]1O[C@H](O[C@@H]2[C@@H](O)[C@H](N)C[C@H](N)[C@H]2O[C@H]2O[C@@H](C(=O)O)[C@@H](O)[C@H](O)[C@H]2N)[C@H](O)[C@@H]1O.O=S(=O)(O)O`: the IC50 in experiment [1] worked out at 420 µM; in experiment [2], 500 µM. In experiment [3], the Ratio IC50 worked out at 1.2. For the same compound, the MIC in experiment [4] and in experiment [5] was more than 192 µg/mL each time.

On to `N[C@H]1[C@@H](O[C@H]2[C@H](O)[C@@H](O)[C@H](N)C[C@@H]2N)O[C@@H](C(=O)O)[C@@H](O)[C@@H]1O.O=S(=O)(O)O`, for which the IC50 amounted to 0.5 µM in experiment [1] and 30 µM in experiment [2]. In addition, in experiment [3], the Ratio IC50 was determined as 60. This compound came in with an MIC in experiment [5] of 100 µg/mL.

Regarding `NC[C@H]1O[C@H](O[C@@H]2[C@@H](O)[C@H](N)C[C@H](N)[C@H]2O[C@H]2O[C@@H](C(N)=O)[C@@H](O)[C@H](O)[C@H]2N)[C@H](O)[C@@H]1O.O=S(=O)(O)O`, the IC50 stood at 2 µM in experiment [1] and 20 µM in experiment [2]. The Ratio IC50 in experiment [3] stood at 10. In experiment [5], this compound registered an MIC of 83 µg/mL.

Consider `NC[C@H]1O[C@H](O[C@@H]2[C@@H](O)[C@H](N)C[C@H](N)[C@H]2O[C@H]2O[C@H](CO)[C@@H](O)[C@H](O)[C@H]2N)[C@H](O)[C@@H]1O.O=S(=O)(O)O`, for which the IC50 came to 2930 µM in experiment [1] and 4320 µM in experiment [2]. Besides, the Ratio IC50 in experiment [3] amounted to 1.5. Besides, the MIC in experiment [4] and in experiment [5] was more than 192 µg/mL each time. Also, the result in experiment [6] and in experiment [7] was Active.

Take `C[C@H](N)[C@H]1O[C@H](O[C@@H]2[C@@H](O)[C@H](N)C[C@H](N)[C@H]2O[C@H]2O[C@@H](C(=O)O)[C@@H](O)[C@H](O)[C@H]2N)[C@H](O)[C@@H]1O.O=S(=O)(O)O`: the IC50 worked out at 1300 µM in experiment [1] and 600 µM in experiment [2]. Also, the Ratio IC50 in experiment [3] turned out to be 0.5. For the same compound, the MIC in experiment [4] and in experiment [5] was more than 192 µg/mL throughout. The result in experiment [6] and in experiment [7] was inactive.

For `N[C@H]1[C@@H](O[C@H]2[C@H](O)[C@@H](O)[C@H](N)C[C@@H]2N)O[C@H](CO)[C@@H](O)[C@@H]1O.O=S(=O)(O)O` [PAROMAMINE SULFATE], the IC50 in experiment [1] was 10 µM; in experiment [2] it was 800 µM. For the same compound, the Ratio IC50 in experiment [3] is 80. The MIC in experiment [4] and in experiment [5] was more than 192 µg/mL in each case.

With `C[C@H](N)[C@H]1O[C@H](O[C@@H]2[C@@H](O)[C@H](N)C[C@H](N)[C@H]2O[C@H]2O[C@@H](C(N)=O)[C@@H](O)[C@H](O)[C@H]2N)[C@H](O)[C@@H]1O.O=S(=O)(O)O`, the figures for the IC50 in experiment [1] and in experiment [2] were 2310 µM and 520 µM, respectively. Besides, the Ratio IC50 in experiment [3] was 0.2. Further, the minimal inhibitory concentration (MIC) in experiment [4] and in experiment [5] was more than 192 µg/mL in each case. In addition, the outcome in experiment [6] and in experiment [7] was inactive.
